pIC50: −log10 of the molar value.
What was measured:
[1] = molecular target: T1, phosphorylated EGFR (pEGFR) (Homo sapiens, UniProt P00533); assay: Detection of phosphorylated EGFR (pEGFR) by AlphaLISA in EGF-stimulated A431 cells; assay type: cell-based; settings: A431 cells (10% FBS), 4 hours incubation, EGF 30 ng/mL for 10 minutes
T1 construct: performed to measure phosphorylated EGFR levels using A431 cells (10% FBS); endogenous in cells; host or cells: A431
Experimental: Enzyme-linked immunosorbent assays (ELISA) were performed to measure phosphorylated EGFR levels using A431 cells (10% FBS). A431 (1.0*10^4 cells/40 μl/well) cells were seeded in 384 well. Compounds were dissolved in DMSO, serially diluted in DMSO and then were added, mixed, and incubated for 4 hours at 37° C., 5% C02. Following the 4-hours incubation, cells were stimulated for 10 minutes with EGF (Invitrogen, cat #PHG0311) at a final concentration of 30 ng/mL in the incubator. The media was aspirated and cells were lysed in 10 μL lysis buffer with protease and phosphatase inhibitors (PerkinElmer, cat #ALSU-PEGFR-A50K). The plates were placed on a shaker for 5 μminutes and then incubated for 30 min at 4° C. for complete lysis. The lysate was transferred to an Optiplate (Perkin Elmer, cat #6007290).
Acceptor mix (PerkinElmer, cat #ALSU-PEGFR-A50K) was prepared just before use and 5 μL was dispensed to all the wells, followed by a 1.5-2 h incubation at room temperature in dark. The donor mix (PerkinElmer, cat #ALSU-PEGFR-A50K) was prepared under low light conditions prior to use and 5 μl of donor mix was added to all the wells under subdued lighting or green filters. The plates were placed on a shaker for 5 μmin, sealed, and incubated overnight at room temperature in dark. Plates were read on the Envision (PerkinElmer) using standard AlphaLISA settings.
The percentage of inhibition on EGFR phosphorylation was calculated following equation: % Inhibition=100×(LumHC−LumSample)/(LumHC−LumLC). The low and high controls (LC/HC) are generated from lysate from wells with cells treated with DMSO or […] Staurosporine (BioAustralis, cat #BIA-S1086), […]. IC50 values were calculated by fitting the Curve using XLfit (v5.3.1.3), equation 201: Y=Bottom+(Top−Bottom)/(1+10^((Log IC50−X)*HillSlope)).

[2] = molecular target: T2, phosphorylated ERBB2 (pERBB2) (Homo sapiens, UniProt P04626); assay: Detection of phosphorylated ERBB2 (pERBB2) by ELISA in BT-474 cells; assay type: cell-based; settings: four hour incubation
T2 construct: endogenous in cells; host or cells: BT-474
Experimental: BT-474 cells were seeded into a 96-well at 2.0*10^4 cells/100 μl/well. Compounds were dissolved and serially diluted in DMSO. The compounds were then were added, mixed, and incubated for four hours at 37° C., 5% CO2. Compounds were added using four-fold dilutions at final concentrations ranging from 10 μM to 0.01 nM. Following the four hour incubation with compounds, cell lysates were prepared. Plates were centrifuged for 5 μmin at 3000 RPM, and supernatant was removed from each well. Cells were washed 3 times by resuspension in 150 μl PBS, followed by centrifugation and removal of the supernatant, as above. 100 μl of cell lysis buffer (Boston BioProducts, cat #BP-115D) supplied with 1× complete ULTRA cocktail inhibitor (Thermo ScientificTM, cat #78443) was then added to the washed cells. Cells were incubated with lysis buffer for 1 hour at 4° C., and then stored at -80° C. Enzyme-linked immunosorbent assays (ELISA) were performed to measure phosphorylated ERBB2 levels. […] The next day, plates were washed with PBS+0.05% Tween20 (PBST). 150 μl of 5% BSA blocking solution was added for 1 hour at room temperature, with shaking. Plates were washed with PBST. Cell lysates were thawed and 100 μl of lysate was added to the ELISA plate. The plates were incubated for 2 hours at room temperature, with shaking. ELISA plates were then washed with PBST and 100 μl of an HRP-labeled detection antibody that binds phosphorylated tyrosine (R&D Systems, cat #841913) was added to each well. Plates were incubated for 1 hour at room temperature, with shaking. Plates were then washed with PBST, and 100 μl TMB substrate solution (R&D Systems, cat #DY999) was added. Plate were incubated in the dark for 20 minutes at room temperature. 50 μl of Stop solution (R&D Systems, cat #DY994) (50 μl) was added to each well and mixed. Optical density at 450 nm was read on an EnSpire plate reader (Perkin Elmer). The remaining kinase activity by calculated using the following formula: % Relative activity=100×([…]). The low and high control values (“LC” and “HC”) were generated from lysate from wells without cells or with cells treated with 0.1% DMSO, respectively.

T1 sequence (P00533 25-1210): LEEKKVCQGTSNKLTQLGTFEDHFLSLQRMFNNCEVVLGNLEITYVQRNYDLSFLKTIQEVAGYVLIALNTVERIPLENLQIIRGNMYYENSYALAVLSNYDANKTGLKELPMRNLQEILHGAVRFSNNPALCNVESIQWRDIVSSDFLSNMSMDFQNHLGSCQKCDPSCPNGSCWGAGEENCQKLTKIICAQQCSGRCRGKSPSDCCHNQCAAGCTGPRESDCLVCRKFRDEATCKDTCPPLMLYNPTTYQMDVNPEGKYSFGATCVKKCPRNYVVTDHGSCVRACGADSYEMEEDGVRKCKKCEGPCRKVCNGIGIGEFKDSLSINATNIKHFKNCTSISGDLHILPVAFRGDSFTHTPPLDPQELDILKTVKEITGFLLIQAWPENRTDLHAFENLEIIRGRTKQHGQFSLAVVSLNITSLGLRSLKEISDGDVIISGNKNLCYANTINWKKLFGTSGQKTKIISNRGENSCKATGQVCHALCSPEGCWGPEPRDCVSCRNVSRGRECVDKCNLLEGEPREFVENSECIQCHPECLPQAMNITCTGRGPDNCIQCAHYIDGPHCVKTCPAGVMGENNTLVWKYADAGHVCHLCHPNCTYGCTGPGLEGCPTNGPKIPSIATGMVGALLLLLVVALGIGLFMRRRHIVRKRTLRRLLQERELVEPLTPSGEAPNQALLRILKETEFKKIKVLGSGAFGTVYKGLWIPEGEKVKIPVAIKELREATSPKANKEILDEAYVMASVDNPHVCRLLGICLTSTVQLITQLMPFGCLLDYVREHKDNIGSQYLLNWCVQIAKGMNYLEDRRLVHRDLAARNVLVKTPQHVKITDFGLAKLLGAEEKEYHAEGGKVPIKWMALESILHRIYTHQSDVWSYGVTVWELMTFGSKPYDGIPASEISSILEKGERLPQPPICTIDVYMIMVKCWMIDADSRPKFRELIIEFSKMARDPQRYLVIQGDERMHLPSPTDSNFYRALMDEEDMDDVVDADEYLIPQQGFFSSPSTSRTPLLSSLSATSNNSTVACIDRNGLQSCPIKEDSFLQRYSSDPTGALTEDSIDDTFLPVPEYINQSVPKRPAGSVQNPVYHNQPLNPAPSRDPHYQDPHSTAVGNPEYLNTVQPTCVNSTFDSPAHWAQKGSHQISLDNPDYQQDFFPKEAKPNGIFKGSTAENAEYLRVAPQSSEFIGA
T2 sequence (P04626 23-1255): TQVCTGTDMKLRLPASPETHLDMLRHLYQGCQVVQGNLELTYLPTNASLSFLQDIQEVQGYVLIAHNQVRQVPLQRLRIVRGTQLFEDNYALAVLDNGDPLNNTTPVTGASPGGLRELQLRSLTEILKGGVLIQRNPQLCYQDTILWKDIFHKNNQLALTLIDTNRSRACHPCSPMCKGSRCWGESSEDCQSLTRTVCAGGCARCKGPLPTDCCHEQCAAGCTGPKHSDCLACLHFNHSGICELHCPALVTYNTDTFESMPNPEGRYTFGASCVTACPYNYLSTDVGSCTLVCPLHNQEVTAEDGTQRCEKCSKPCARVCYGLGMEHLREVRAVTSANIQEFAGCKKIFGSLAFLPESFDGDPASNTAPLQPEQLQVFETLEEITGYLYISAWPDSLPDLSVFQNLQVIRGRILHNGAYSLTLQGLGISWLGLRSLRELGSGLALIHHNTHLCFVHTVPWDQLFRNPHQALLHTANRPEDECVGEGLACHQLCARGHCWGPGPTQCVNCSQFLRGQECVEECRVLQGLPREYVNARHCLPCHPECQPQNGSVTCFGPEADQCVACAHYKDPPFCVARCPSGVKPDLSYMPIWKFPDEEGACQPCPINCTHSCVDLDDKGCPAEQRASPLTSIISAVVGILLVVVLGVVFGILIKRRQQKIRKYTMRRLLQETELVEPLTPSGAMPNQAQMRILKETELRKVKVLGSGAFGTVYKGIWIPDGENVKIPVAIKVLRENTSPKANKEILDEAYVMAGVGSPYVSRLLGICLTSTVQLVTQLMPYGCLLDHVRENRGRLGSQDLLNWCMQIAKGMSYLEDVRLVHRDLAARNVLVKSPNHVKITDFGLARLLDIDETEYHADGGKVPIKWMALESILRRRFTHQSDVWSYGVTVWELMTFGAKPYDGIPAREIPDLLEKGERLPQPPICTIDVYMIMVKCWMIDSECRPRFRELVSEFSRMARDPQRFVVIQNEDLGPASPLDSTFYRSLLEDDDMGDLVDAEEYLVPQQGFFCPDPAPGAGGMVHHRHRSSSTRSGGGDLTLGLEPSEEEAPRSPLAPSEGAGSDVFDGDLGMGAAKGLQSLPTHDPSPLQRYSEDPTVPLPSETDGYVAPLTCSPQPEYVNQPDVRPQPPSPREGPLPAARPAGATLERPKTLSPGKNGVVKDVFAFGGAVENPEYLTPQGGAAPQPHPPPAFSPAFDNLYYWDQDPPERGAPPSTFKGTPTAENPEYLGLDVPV

Row | pIC50 [1] | pIC50 [2] | Compound
1 | < 5.00 | 6.66 | Cc1cc(Nc2ncnc3ccc4c(c23)OC[C@@H]2CN(C)CCN42)ccc1Oc1ccn2ncnc2c1 [Compound 44, (S)—N-(4-([1,2,4]triazolo[1,5-a]pyridin-7-yloxy)-3-methylphenyl)-8-methyl-6,6a,7,8,9,10-hexahydropyrazino[1′,2′:4,5][1,4]oxazino[2,3-f]quinazolin-4-amine]
2 | < 5.00 | 6.63 | Cc1cc(Nc2ncnc3cc4c(nc23)N2CCN(C)C[C@@H]2CO4)ccc1Oc1ccn2ncnc2c1 [Compound 36, (R)—N-(4-([1,2,4]triazolo[1,5-a]pyridin-7-yloxy)-3-methylphenyl)-3-methyl-1,2,3,4,4a,5-hexahydropyrazino[1,2-d]pyrimido[4′,5′:5,6]pyrido[3,2-b][1,4]oxazin-11-amine]
3 | < 5.00 | 7.09 | Cc1cc(Nc2ncnc3ccc4c(c23)OC[C@@H]2CN4CCN2C)ccc1Oc1ccc2c(c1)ncn2C [Compound 54, (3S)-4-methyl-N-(3-methyl-4-((1-methyl-1H-benzo[d]imidazol-5-yl)oxy)phenyl)-3,4,5,6-tetrahydro-2H-3,7-methano[1,4,7]oxadiazonino[2,3-f]quinazolin-13-amine]
4 | 5.02 | 7.24 | Cc1cc(Nc2ncnc3ccc4c(c23)OC[C@H]2COCCN42)ccc1Oc1ccc2c(c1)ncn2C [Compound 108, (R)—N-(3-methyl-4-((1-methyl-1H-benzo[d]imidazol-5-yl)oxy)phenyl)-6a,7,9,10-tetrahydro-6H-[1,4]oxazino[4′,3′:4,5][1,4]oxazino[2,3-f]quinazolin-4-amine]
5 | < 5.00 | 6.55 | Cc1cc(Nc2ncnc3cc4c(nc23)N2CCNC[C@@H]2CO4)ccc1Oc1ccc2c(c1)ncn2C [Compound 39, (R)—N-(3-methyl-4-((1-methyl-1H-benzo[d]imidazol-5-yl)oxy)phenyl)-1,2,3,4,4a,5-hexahydropyrazino[1,2-d]pyrimido[4′,5′:5,6]pyrido[3,2-b][1,4]oxazin-11-amine]
6 | < 5.00 | 7.65 | Cc1cc(Nc2ncnc3ccc4c(c23)OC[C@H]2CN(C)CCN42)ccc1Oc1ccc2c(c1)ncn2C [Compound 46, (R)-8-methyl-N-(3-methyl-4-((1-methyl-1H-benzo[d]imidazol-5-yl)oxy)phenyl)-6,6a,7,8,9,10-hexahydropyrazino[1′,2′:4,5][1,4]oxazino[2,3-f]quinazolin-4-amine]
7 | < 5.00 | 7.09 | Cc1cc(Nc2ncnc3ccc4c(c23)OC[C@H]2COCCN42)c(F)cc1Oc1ccn2ncnc2c1 [Compound 100, (R)—N-(4-([1,2,4]triazolo[1,5-a]pyridin-7-yloxy)-2-fluoro-5-methylphenyl)-6a,7,9,10-tetrahydro-6H-[1,4]oxazino[4′,3′:4,5][1,4]oxazino[2,3-f]quinazolin-4-amine]
8 | < 5.00 | 7.33 | Cc1cc(Nc2ncnc3cc4c(nc23)N2CCOC[C@H]2CO4)ccc1Oc1ccn2ncnc2c1 [Compound 67, (S)—N-(4-([1,2,4]triazolo[1,5-a]pyridin-7-yloxy)-3-methylphenyl)-1,2,4a,5-tetrahydro-4H-[1,4]oxazino[4,3-d]pyrimido[4′,5′:5,6]pyrido[3,2-b][1,4]oxazin-11-amine]
9 | < 5.00 | 7.24 | Cc1cc(Nc2ncnc3ccc4c(c23)OC[C@H]2CNCCN42)ccc1Oc1ccn2ncnc2c1 [Compound 41, (R)—N-(4-([1,2,4]triazolo[1,5-a]pyridin-7-yloxy)-3-methylphenyl)-6,6a,7,8,9,10-hexahydropyrazino[1′,2′:4,5][1,4]oxazino[2,3-f]quinazolin-4-amine diformic acid]
10 | < 5.00 | 6.68 | Cc1c(Oc2ccn3ncnc3c2)ccc(Nc2ncnc3ccc4c(c23)OC[C@H]2COCCN42)c1F [Compound 99, (R)—N-(4-([1,2,4]triazolo[1,5-a]pyridin-7-yloxy)-2-fluoro-3-methylphenyl)-6a,7,9,10-tetrahydro-6H-[1,4]oxazino[4′,3′:4,5][1,4]oxazino[2,3-f]quinazolin-4-amine]
11 | < 5.00 | 6.92 | Cc1cc(Nc2ncnc3cc4c(c(F)c23)N2CCN(C)C[C@H]2CO4)ccc1Oc1ccn2ncnc2c1 [Compound 66, (S)—N-(4-([1,2,4]triazolo[1,5-a]pyridin-7-yloxy)-3-methylphenyl)-12-fluoro-3-methyl-1,2,3,4,4a,5-hexahydropyrazino[1′,2′:4,5][1,4]oxazino[3,2-g]quinazolin-11-amine]
12 | < 5.00 | 7.00 | Cc1cc(Nc2ncnc3cc4c(nc23)N2CCC[C@H]2CO4)ccc1Oc1ccn2ncnc2c1 [Compound 69, (S)—N-(4-([1,2,4]triazolo[1,5-a]pyridin-7-yloxy)-3-methylphenyl)-2,3,3a,4-tetrahydro-1H-pyrimido[4′,5′:5,6]pyrido[3,2-b]pyrrolo[1,2-d][1,4]oxazin-10-amine]
13 | < 5.00 | 7.12 | Cc1cc(Nc2ncnc3ccc4c(c23)OC[C@@H]2CNCCN42)ccc1Oc1ccn2ncnc2c1 [Compound 43, (S)—N-(4-([1,2,4]triazolo[1,5-a]pyridin-7-yloxy)-3-methylphenyl)-6,6a,7,8,9,10-hexahydropyrazino[1′,2′:4,5][1,4]oxazino[2,3-f]quinazolin-4-amine]
14 | < 5.00 | 7.01 | Cc1cc(Nc2ncnc3cc4c(cc23)N2CCN(C)C[C@@H]2CO4)ccc1Oc1ccn2ncnc2c1 [Compound 60, (R)—N-(4-([1,2,4]triazolo[1,5-a]pyridin-7-yloxy)-3-methylphenyl)-3-methyl-1,2,3,4,4a,5-hexahydropyrazino[1′,2′:4,5][1,4]oxazino[3,2-g]quinazolin-11-amine]
15 | < 5.00 | 7.13 | COC(=O)N1CCN2c3ccc4ncnc(Nc5ccc(Oc6ccn7ncnc7c6)c(C)c5)c4c3OC[C@H]2C1 [Compound 110, methyl (R)-4-((4-([1,2,4]triazolo[1,5-a]pyridin-7-yloxy)-3-methylphenyl)amino)-6a,7,9,10-tetrahydropyrazino[1′,2′:4,5][1,4]oxazino[2,3-f]quinazoline-8(6H)-carboxylate]
16 | < 5.00 | 7.12 | Cc1cc(Nc2ncnc3ccc4c(c23)OC[C@H]2CCCN42)ccc1Oc1ccn2ncnc2c1 [Compound 87, (R)—N-(4-([1,2,4]triazolo[1,5-a]pyridin-7-yloxy)-3-methylphenyl)-6a,7,8,9-tetrahydro-6H-pyrrolo[1′,2′:4,5][1,4]oxazino[2,3-f]quinazolin-4-amine]
17 | < 5.00 | 7.01 | Cc1c(Oc2ccn3ncnc3c2)ccc(Nc2ncnc3cc4c(nc23)N2CCN(C)C[C@H]2CO4)c1F [Compound 74, (S)—N-(4-([1,2,4]triazolo[1,5-a]pyridin-7-yloxy)-2-fluoro-3-methylphenyl)-3-methyl-1,2,3,4,4a,5-hexahydropyrazino[1,2-d]pyrimido[4′,5′:5,6]pyrido[3,2-b][1,4]oxazin-11-amine]
18 | < 5.00 | 6.64 | Cc1cc(Nc2ncnc3ccc4c(c23)OC[C@H]2CN4CCO2)ccc1Oc1ccn2ncnc2c1 [Compound 71, (3R)—N-(4-([1,2,4]triazolo[1,5-a]pyridin-7-yloxy)-3-methylphenyl)-2,3,5,6-tetrahydro-3,7-methano[1,4,7]dioxazonino[5,6-f]quinazolin-13-amine]

— US20260078135A1, “POLYCYCLIC QUINAZOLINES FOR INHIBITION OF ERBB2” (Enliven Inc., priority 2022, published 2026)
